Tested on: ascitic form of Gardner lymphosarcoma (IP-LsG)
Assay: anti-cancer screening in mice with ascitic Gardner lymphosarcoma
Assay type: in vivo
Conditions: for weight coefficient (weight loss in comparison with the control group): one week after the start of the therapy
Procedure: The red colorant isolated under the above-described conditions and having the above-mentioned characteristics was subjected to a screening study for anti-cancer properties.
The tested substance was administered to mice suffering from the ascitic form of Gardner lymphosarcoma (IP-LsG). 6-(2-(2-hydroxyethyl)aminoethyl)-5,11-dioxo-5,6-dihydro-11H-indeno[1,2-c]isoquinoline hydrochloride having the summary formula C20H18N2O3.HCl was used as a reference substance.
Female C3H mice weighing 26.1 to 27.3 g were used. The animals were kept in plastic containers and fed with the NOE diet made by RATIO, s.r.o., Breclav, Czech Republic, and with potable water ad libitum. The temperature in the room was maintained, the relative humidity was 60%, and the light regimen was not regulated.
The Gardner lymphosarcoma is maintained in the ascitic form in the C3H mice by inoculating ascitic cells removed a week after the previous inoculation by puncturing the abdominal cavity. The mice are administered with 0.2 ml of the ascites diluted with an isotonic solution of sodium chloride for injections intraperitoneally 10 to 20 times. The cell material for tests is obtained by puncturing the abdominal cavity on the seventh day following inoculation. For the therapeutic test, the inoculation with the ascites diluted with an isotonic solution of sodium chloride for injections was made by administering 10^7 cells in a volume of 0.2 ml i.p. to each animal.
The C3H mice were over 6 weeks old, weighing 26.1 to 27.3 g, in groups of 10 animals, the control was-common. Two dosage groups were used for each route of administration and for one substance tested.
The dosage levels: 200 and 100 mg/kg×5 p.o. and 100 and 50 mg/kg×5 s.c. in a volume 0.2 to 0.4 ml and 0.2 to 0.4 ml p.o. (reference substance), resp. for 20 g body weight. Frequency of administration: 1× daily beginning on the first day. The tested substance was administered in a continuous pattern on the 1st to 5th days in doses given in Table 1 and the reference substance was administered p.o. once on the 1st day.
After the administration was finished, the animals were left for monitoring the survival time. The dose dependence of the survival time was evaluated in comparison with the non-administered control. Time as a biological response was currently evaluated by means of the non-parametric test according to Hájek (Fabián V.: Základní statistické metody (“Basic Statistical Methods”), NCSAV, Prague 1963).
After the experiment was complete, time in case of point estimates was evaluated using the test of identity of two means (Student t-test) under the presumption of logarithmic-normal distribution of time values and under the presumption of various unknown variances (Roth Z., Josífko M., Malý V., Trcka V.: Statistické metody v experimentální medicíne (“Statistical Methods in Experimental Medicine”); p. 278, SZN, Prague 1962). Geometrical averages were calculated from the individual values of time to death. The differences In average values in which the value of the test criterion has exceeded the critical value for the significance level of 5% were designated as statistically significant.

[1] = 100 mg/kg p.o. once on the 1st day
[2] = 200 mg/kg p.o. once on the 1st day

Compound: Cl.O=C1c2ccccc2-c2c1c1ccccc1c(=O)n2CCNCCO [reference, 6-(2-(2-hydroxyethyl)aminoethyl)-5,11-dioxo-5,6-dihydro-11H-indeno[1,2-c]isoquinoline hydrochloride]
- median of time to death [1]: >48.5 days
- survival LTS (number of animals surviving on day 65) [1]: 5/10
- weight coefficient (weight loss in comparison with the control group) [1]: −6.67%
- median of time to death [2]: >65.0 days
- survival LTS (number of animals surviving on day 65) [2]: 10/10
- weight coefficient (weight loss in comparison with the control group) [2]: −14.63%
